Results from paper PMC4820889 (Journal of Biomedical Research, 2015).

Molecular target: ABCC1 (MRP1) (Homo sapiens, UniProt P33527)
Sequence (P33527 whole entry): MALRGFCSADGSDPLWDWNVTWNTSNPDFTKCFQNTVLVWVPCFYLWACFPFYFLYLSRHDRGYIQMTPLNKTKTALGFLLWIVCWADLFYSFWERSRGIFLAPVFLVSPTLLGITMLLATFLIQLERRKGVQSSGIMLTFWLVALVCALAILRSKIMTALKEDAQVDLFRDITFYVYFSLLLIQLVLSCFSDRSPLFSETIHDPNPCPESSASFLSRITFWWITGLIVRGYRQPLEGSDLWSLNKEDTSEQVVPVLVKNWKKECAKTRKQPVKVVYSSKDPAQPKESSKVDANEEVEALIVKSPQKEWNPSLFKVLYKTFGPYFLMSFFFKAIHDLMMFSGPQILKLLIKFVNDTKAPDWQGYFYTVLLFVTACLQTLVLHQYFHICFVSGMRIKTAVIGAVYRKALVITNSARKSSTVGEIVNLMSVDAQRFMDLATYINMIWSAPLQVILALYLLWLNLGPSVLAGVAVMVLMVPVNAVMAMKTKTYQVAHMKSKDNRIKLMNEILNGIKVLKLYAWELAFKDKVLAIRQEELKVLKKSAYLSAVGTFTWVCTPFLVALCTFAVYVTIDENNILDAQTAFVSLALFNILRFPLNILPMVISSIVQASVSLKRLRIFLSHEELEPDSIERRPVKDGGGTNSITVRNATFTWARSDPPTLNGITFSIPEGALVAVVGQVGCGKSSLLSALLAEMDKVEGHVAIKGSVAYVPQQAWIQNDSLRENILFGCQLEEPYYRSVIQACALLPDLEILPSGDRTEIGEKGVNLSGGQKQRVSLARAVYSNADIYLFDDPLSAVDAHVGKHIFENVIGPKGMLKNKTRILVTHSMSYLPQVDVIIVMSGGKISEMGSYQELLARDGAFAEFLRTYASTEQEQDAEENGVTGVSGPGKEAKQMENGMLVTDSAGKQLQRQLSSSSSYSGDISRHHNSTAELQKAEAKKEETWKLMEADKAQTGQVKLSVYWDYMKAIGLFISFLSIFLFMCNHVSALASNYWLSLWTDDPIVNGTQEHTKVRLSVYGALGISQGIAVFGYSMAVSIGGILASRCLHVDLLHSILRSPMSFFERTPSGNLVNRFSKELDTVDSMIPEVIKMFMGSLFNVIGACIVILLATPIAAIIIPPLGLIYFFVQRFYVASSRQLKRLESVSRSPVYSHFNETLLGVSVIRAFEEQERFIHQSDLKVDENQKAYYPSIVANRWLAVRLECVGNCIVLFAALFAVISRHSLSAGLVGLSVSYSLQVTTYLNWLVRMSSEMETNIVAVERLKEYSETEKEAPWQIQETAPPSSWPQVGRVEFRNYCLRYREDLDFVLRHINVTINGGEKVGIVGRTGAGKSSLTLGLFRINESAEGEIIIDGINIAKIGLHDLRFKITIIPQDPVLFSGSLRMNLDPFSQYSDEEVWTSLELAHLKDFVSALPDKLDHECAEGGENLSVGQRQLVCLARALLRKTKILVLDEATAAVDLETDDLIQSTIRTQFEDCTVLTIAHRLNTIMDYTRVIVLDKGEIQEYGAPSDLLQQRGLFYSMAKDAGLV

Question: How did the IC50 turn out when `CSc1ccc(/C=C2/C(C)=C(CC(=O)O)c3cc(F)ccc32)cc1` [SS, sulindac sulfide] was run?
Answer: 5.6 µM
